Results published in patent US8883165B2, “Modified peptide vaccine derived from influenza M2” (The Chemo-Sero-Therapeutic Research Institute, priority 2009, dated 2014).
Several values for one entry are separate records, joined by “and”; a condition that tells them apart may be missing. Equal entries are not always repeated. Entries after “also recorded” stand apart in the source; their conditions may differ. Where two headings read alike, the source gives them in different places.

Assays:
M2e [1] = test system: M2e; design: species or system BALB/c mice; details: mouse, in vivo
[2] = test system: Influenza virus (A/PR8/8/34 strain, H1N1); assay type: in vivo, BALB/c mice; details: 21 days
M2e [3] = test system: M2e; design: species or system BALB/c mice; details: mouse, in vivo; remark: listed apart in the source
[4] = test system: Influenza virus (A/PR8/8/34 strain, H1N1); design: species or system BALB/c mice; details: mouse, in vivo

Sequence	anti-M2e antibody titer immediately before challenge (M2e [1])	Survival rate [2]	anti-M2e antibody titer just before challenge (M2e [3])	Survival rate [4]
SLLTEVETPTRSEWECRCSDSSD [swM2e, reference compound]	high anti-M2e antibody titer; also recorded: almost no increase in an antibody titer	4/10 and 8/10		
SLLTEVETPIRNEWGCRCNDSSD (Influenza A virus) [M2e, peptide of 23 amino acid residues, positions No. 2 to No. 24 of M2 in influenza virus type A, no cysteine inserted, reference compound]			could not induce an anti-M2e antibody titer	3/8
